Test results as given in PMC4425356, “An Extended Surface Loop on Toxoplasma gondii Apical Membrane Antigen 1 (AMA1) Governs Ligand Binding Selectivity” (PLoS ONE, 2015).
Entries after “also recorded” stand apart in the source; their conditions may differ. Like-named read-outs stand apart in the source and are kept apart here. Ends that are not written are not given here.

Key:
[1] = biological target: Toxoplasma gondii apical membrane antigen 1 (TgAMA1) (Toxoplasma gondii); test: ITC; TgAMA1 or TgAMA1ΔDIIloop in the sample cell (10 to 16 μM for nanomolar affinity, 35 to 75 μM for micromolar affinity), TRX-fused peptides (110 to 180 μM or 360 to 1180 μM) added in 17 injections of 2 μL; 25 °C; HBS (20 mM HEPES pH 7.5, 150 mM NaCl); one-site model
[2] = biological target: TgAMA1ΔDIIloop (TgAMA1 with the mobile portion of the DII loop replaced with a short Gly-Ser linker) (Toxoplasma gondii) (UniProt B6KAM0); test: as above
TgAMA1ΔDIIloop [3] = test: Native gel electrophoresis of TgAMA1ΔDIIloop co-purified with EtRON2D3; format: binding, Toxoplasma gondii; conditions: 8–25% gradient native gel, HBS, Coomassie Brilliant Blue; sample co-purified with EtRON2D3
Source text: A sequence encoding a portion of EtRON2D3 (amino acids 1262 to 1297, ETH_00012760) was synthesized and subcloned into a modified pET32a vector (Novagen) incorporating N-terminal hexahistidine and thioredoxin (TRX) tags with a thrombin cleavage site. The fusion protein was produced in E. coli BL21 cells. For crystallization, EtRON2D3-TRX was cleaved to remove the fusion tags and co-purified with TgAMA1ΔDIIloop by SEC in HBS followed by anion exchange chromatography using a Source 30Q column (20 mM HEPES pH 8.0, 10 mM NaCl; elution gradient with 20 mM HEPES pH 8.0, 1 M NaCl) to remove residual TRX tag.
Purified TgAMA1ΔDIIloop and co-purified TgAMA1ΔDIIloop-EtRON2D3 protein samples in HBS were run on an 8–25% gradient native gel using the PhastGel system (GE Healthcare), and protein bands were visualized with Coomassie Brilliant Blue staining.

TgAMA1 = test: Isothermal titration calorimetry of TRX-fused RON2D3 peptides titrated into TgAMA1; format: binding, Toxoplasma gondii; conditions: ITC, 25 °C; for -TΔS / ΔG / Kd / Molar Ratio (RON2/AMA1) / ΔH: TgAMA1, TRX-fused peptides; for Molar Ratio (RON2/AMA1) / ΔH: representative of at least two
Description: (§1) For ITC experiments, TgAMA1 was produced and purified as previously reported. Thioredoxin fusions of TgRON2D3, TgRON2L1D3, TgRON2L2D3, EtRON2D3 and PfRON2D3 were produced in E. coli BL21 cells and purified by nickel-affinity and SEC.
(§2) Purified TgAMA1, TgAMA1ΔDIIloop, and TRX fusions of TgRON2D3, TgRON2L1D3 TgRON2L2D3, EtRON2D3, and PfRON2D3 were dialyzed against HBS at 4 °C. All ITC experiments were carried out at 25 °C on a MicroCal iTC200 instrument (GE Healthcare). […] Data were processed using Origin software (MicroCal) and the dissociation constants (Kd) were determined using a one-site model. Values are derived from a single experiment, but are representative of at least two independent experiments.

TgAMA1ΔDIIloop [4] = test: Isothermal titration calorimetry of TRX-fused RON2D3 peptides titrated into TgAMA1ΔDIIloop (DII loop replaced by Gly-Ser linker); format: binding, Toxoplasma gondii; conditions: for binding to TgAMA1ΔDIIloop (in words) / Kd / -TΔS / ΔG / Molar Ratio (RON2/AMA1) / ΔH: ITC, 25 °C; for binding to TgAMA1ΔDIIloop (in words) / -TΔS / ΔG / Molar Ratio (RON2/AMA1) / ΔH: HBS pH 7.5; for Kd / -TΔS / ΔG / Molar Ratio (RON2/AMA1) / ΔH: TgAMA1ΔDIIloop, TRX-fused peptides; for Kd: HBS (20 mM HEPES pH 7.5, 150 mM NaCl), one-site model, representative of at least two independent experiments; for Kd / Molar Ratio (RON2/AMA1) / ΔH: single experiment; for Molar Ratio (RON2/AMA1) / ΔH: representative of at least two
Source text: A sequence encoding the mature ectoplasmic region of TgAMA1 (amino acids 64 to 484, TGME49_255260 [24]) with the twenty residues of the DII loop disordered in the TgAMA1-TgRON2D3 co-structure replaced by a seven residue Gly-Ser linker (TgAMA1ΔDIIloop) was synthesized and subcloned into a modified pAcGP67b vector (Pharmingen) with a C-terminal thrombin cleavage site and hexahistidine tag. TgAMA1ΔDIIloop encoding virus for insect cell protein production was generated and amplified using established protocols. Following a 65 hr infection the supernatant was harvested, concentrated, and TgAMA1ΔDIIloop was purified by nickel batch binding as previously described. The hexahistidine tag was removed by thrombin cleavage and the protein was further purified by size exclusion chromatography (SEC) (Superdex 16/60 75) in HEPES buffered saline (HBS: 20 mM HEPES pH 7.5, 150 mM NaCl).
as §1, §2

TgAMA1 or TgAMA1ΔDIIloop = test: Isothermal titration calorimetry, TRX negative control; format: binding, Toxoplasma gondii; conditions: ITC, 25 °C, HBS pH 7.5
Description: as §2

## EtRON2D3-TRX (Eimeria tenella RON2 domain 3 peptide, thioredoxin fusion) (from UniProt U6KQJ2 1262-1297)
[1]
  Kd: 2200 nM
[2]
  Kd: < 8 nM

## EtRON2D3: a portion of EtRON2D3 (amino acids 1262 to 1297, ETH_00012760), Eimeria tenella RON2 peptide (thioredoxin-DITQHLNDSGLGPAVECLENLVVGPVCPAAVVAPAV; not fully specified (bridges); also: disulfide partially formed)
TgAMA1ΔDIIloop [3]
  native PAGE migration / retention on TgAMA1ΔDIIloop: altered migration for the sample co-purified with EtRON2D3
TgAMA1; HBS pH 7.5
  binding to TgAMA1 (in words): bound both TgRON2D3 and EtRON2D3 but only the former with high affinity
  -TΔS: -3.0 kcal/mol
  ΔG: -7.7 kcal/mol
TgAMA1; HBS pH 7.5, listed as EtRON2
  binding to TgAMA1 (in words): showed only weak binding to TgAMA1
TgAMA1; HBS pH 7.5, rounded value, read-out: affinity (Kd)
  Kd: 2200 nM
TgAMA1; HBS pH 7.5, single experiment
  Molar Ratio (RON2/AMA1): 1.17 ± 0.02
  ΔH: -4.7 ± 0.1 kcal/mol
TgAMA1ΔDIIloop [4]
  binding to TgAMA1ΔDIIloop (in words): bound both TgRON2D3 and EtRON2D3 with high affinity; also recorded: significantly tighter binding to TgAMA1ΔDIIloop relative to TgAMA1
  Kd: 8 ± 3.1 nM
  -TΔS: -0.1 kcal/mol
  ΔG: -11.1 kcal/mol
  Molar Ratio (RON2/AMA1): 0.96 ± 0.01
  ΔH: -11.0 ± 0.1 kcal/mol
TgAMA1ΔDIIloop [4]; listed as EtRON2
  binding to TgAMA1ΔDIIloop (in words): bound with high affinity to TgAMA1ΔDIIloop
TgAMA1ΔDIIloop [4]; ratio of ITC Kd, TgAMA1 (2.2 μM) vs TgAMA1ΔDIIloop (8.0 nM)
  fold tighter binding to TgAMA1ΔDIIloop relative to TgAMA1: approximately 275 fold

## PfRON2D3 thioredoxin fusion (Plasmodium falciparum RON2 domain 3 peptide)
[2]
  Kd: 1400 nM
  stoichiometry N: 1

## TRX: thioredoxin, injected as a negative control
TgAMA1 or TgAMA1ΔDIIloop
  binding of TRX negative control: no detectable binding

## TgRON2D3 thioredoxin fusion (Toxoplasma gondii RON2 domain 3 peptide) (from UniProt B6KV60 1297-1332)
[1]
  Kd: < 5.8 nM

## TgRON2D3: RON2 domain 3 peptide of T. gondii, thioredoxin fusion produced in E. coli BL21 (DIVQHMEDIGGAPPVSCVTNEILGVTCAPQAIAKAT; cysteine pairing not given here; also: thioredoxin fusion, end not given here, His tag, end not given here)
TgAMA1; HBS pH 7.5
  binding to TgAMA1 (in words): bound both TgRON2D3 and EtRON2D3 but only the former with high affinity
  -TΔS: 5.9 kcal/mol
  ΔG: -11.2 kcal/mol
TgAMA1; HBS (20 mM HEPES pH 7.5, 150 mM NaCl), one-site model, single experiment, representative of at least two independent experiments, read-out: Kd
  Kd: 5.8 ± 2.8 nM
TgAMA1; HBS pH 7.5, single experiment
  Molar Ratio (RON2/AMA1): 1.00 ± 0.01
  ΔH: -17.1 ± 0.2 kcal/mol
TgAMA1ΔDIIloop [4]
  binding to TgAMA1ΔDIIloop (in words): bound both TgRON2D3 and EtRON2D3 with high affinity
  Kd: 3.6 ± 3 nM
  -TΔS: 10.6 kcal/mol
  ΔG: -11.6 kcal/mol
  Molar Ratio (RON2/AMA1): 1.01 ± 0.01
  ΔH: -22.2 ± 0.2 kcal/mol

## TgRON2L1D3 thioredoxin fusion (Toxoplasma gondii RON2L1 domain 3 peptide)
[2]
  Kd: 46000 nM
  stoichiometry N: 1

## TgRON2L2D3 thioredoxin fusion (Toxoplasma gondii RON2L2 domain 3 peptide)
[2]
  Kd: 6000 nM
  stoichiometry N: 1
